According to US8759363B2, “Quinazoline-based T cell proliferation inhibitors” (Yissum Research Development Company of the Hebrew …, priority 2010, dated 2014):
Like-named read-outs stand apart in the source and are kept apart here.

How the values were obtained:
[1] = system: CD8+ (2C) and CD4+ (TEA) T cells; test: MLR, double-positive CD8+1B2+ (2C) or CD4+/Va2+ (TEA) effector cells by FACS; type: cell-based, mouse; conditions: 72 h MLR
From the text: Mice used included male and female 6- to 12-week-old CB6/F1 mice, obtained from the Roscoe B. Jackson Memorial Laboratory (The Jackson Laboratory, Bar Harbor, Me., http://www.jax.org). A breeding pair of transgenic (Tg) H-2b mice expressing the T-cell antigen receptor (TCR) 1B2 from the CD8+ clone 2C with specificity for H-2Ld was kindly provided by Janko Nikolic-Zugic (Memorial Sloan-Kettering Cancer Center, New York, http://www.mskcc.org). A breeding pair of Tg H-2b mice expressing the TCR from the CD4+ clone known as TEA with specificity for I-Ead allopeptide, cross-presented by host APC and bound to I-Ab and was kindly provided by Alexander Y. Rudensky (University of Washington, Seattle). I-Ead allopeptide corresponds to the positions 52 to 68 from the alpha-chain of I-E class II molecules and is expressed in all APCs from H-2b/I-E+ strains (CB6F1-hybrid of C57BL/6 and Balb/c). C57BL/6 mice are H-2b but I-E−, whereas BALB/c are H-2d and I-E+, and therefore their F1 hybrids are H-2b/1-E+ and able to directly present antigen.
Responder 2C splenocytes were harvested, and the cell suspensions were treated with Tris-buffered ammonium chloride to remove RBC. […] On day 3, the MLR cultures were harvested, and analyzed by FACS for CD4 or CD8 levels.
FACS analysis was performed using a modified FACScan (BD Biosciences, Mountain View, Calif.). Fluorescence data were collected during one minute. […]

HEK293 = HEK293 proliferation, BrdU uptake; type: cell-based; conditions: Homo sapiens
Procedure: Cells were depleted of fetal calf serum (FCS) for 12 hours. They were then stimulated to proliferate by addition of ConA (10 μg/ml) for PBMC from healthy individuals and for Jurkat cells, FCS (10%) for HEK293 and A375 cells, PDGF (30 ng/ml) for NIH 3T3 cells, and EGF (30 ng/ml) for MDA-MB-231, Cells (1×10^5) were cultured in 96-well plates for 3 days in the presence or absence of inhibitors at the concentrations specified in the text. Each condition was tested in duplicate wells.
Proliferation was assessed by BrdU incorporation using a colorimetric ELISA kit (Roche, Germany). Subsequent to labeling with 10 μM BrdU, DNA was denatured and the cells were incubated with anti-BrdU-POD, prior to the addition of colorimetric substrate (TMB). The reaction product was quantified by measuring absorbance at 450 nm in an ELISA plate reader (ELx800 BIO-TEK Instruments Inc.).
To characterize the mode of action of 2 (S101) in more detail, we first examined whether 2 inhibits non-hematopoietic cell lines. We studied the effect of 2 on the growth of four cell lines: NIH 3T3 (mouse embryonic fibroblasts), A-431 (human vulval carcinoma cells), MDA-MB-468 (human breast carcinoma cells), and PANC-1 (human pancreatic carcinoma cells) (FIGS. 1A-B). We also tested the inhibitors on human keratinocytes. […]

OT2 (resting) cells = test: MLR with resting control cells, resting OT2 cells; type: cell-based, mouse; conditions: 0.5 μM, 72 h MLR with IL-7; no inhibitor 1025
From the text: The aim of this test was to determine whether 2 affects only the proliferating cells or there is a general mechanism affecting all cell numbers. For this purpose we mixed 3 cell types: […]: BALB/c, 2C and OT1; […]: CB6F1, TEA and OT2. The OT1 and OT2 are splenocytes that were isolated from OT1 and OT2 mice (Jackson Laboratories, Bar Harbor, Me.),
Thus, the ability to monitor the fate of proliferation and resting cells by FACS was enabled due to the use of the MLR described above for CD4+ and CD8+ and the addition of OT2 and OT1 splenocytes, respectively.
Proliferating cells often secrete cytokines that induce survival of neighbouring cells; since the proliferation was expected to be inhibited we added 50 ng/ml of IL-7. This concentration is sufficient to keep the cells alive, but not to induce proliferation.
The number of TEA and OT2 cells that were treated with 0.5 μM 2 was 1452 and 826, respectively, while the number of 2C and OT1 cells that were treated with 0.5 μM 21 was 3003 and 903, respectively. This is depicted as a bar-graph in FIG. 9C.

In the case of `COc1cc(-c2nc(Nc3ccc(C)cc3)c3ccccc3n2)cc(OC)c1OC` [Compound 2, N-p-tolyl-2-(3,4,5-trimethoxyphenyl)quinazolin-4-amine], the “percentage of double-positive effector cells” value [1] is reported as “reduced in a dose dependent manner”, the IC50 (HEK293; HEK293, non-stimulated, read-out: IC50 of non-stimulated cells) is reported as about 10 µM and the IC50 (HEK293; HEK293, serum (FCS 10%) activated, read-out: IC50 of stimulated cells) is reported as about 10 µM. The “number of OT2 (resting) cells” value (OT2 (resting) cells) was 826.
